Each block holds one molecule with its values, some of them ahead of it.
Key:
[1] = biological target: T1, human LXRα (Homo sapiens, UniProt Q13133); test: Ligand-binding test procedure for human LXRα (3H T0901317 tracer, flash plates); conditions: biotinylated hLXRα from E. coli extract; tracer 3H T0901317
T1 construct: biotin (biotinylated); made in house; host or cells: E. coli (crude extract)
T1 sequence (Q13133 1-447): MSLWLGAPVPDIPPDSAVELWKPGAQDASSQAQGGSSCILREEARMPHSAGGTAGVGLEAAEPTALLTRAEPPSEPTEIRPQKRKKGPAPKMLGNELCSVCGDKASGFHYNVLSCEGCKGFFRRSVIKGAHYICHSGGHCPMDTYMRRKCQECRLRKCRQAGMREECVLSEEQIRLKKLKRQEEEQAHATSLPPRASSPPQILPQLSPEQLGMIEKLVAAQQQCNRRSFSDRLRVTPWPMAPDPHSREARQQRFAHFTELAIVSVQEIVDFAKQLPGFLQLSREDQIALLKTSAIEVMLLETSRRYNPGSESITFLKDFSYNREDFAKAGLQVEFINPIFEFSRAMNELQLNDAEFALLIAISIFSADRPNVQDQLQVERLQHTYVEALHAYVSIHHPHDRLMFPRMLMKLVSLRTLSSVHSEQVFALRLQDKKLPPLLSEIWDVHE
Procedure: II. Ligand-Binding Test Procedure for Human LXRα.
Receptor source: E. coli extract from cells expressing biotinylated hLXRα. Extract was made in a similar buffer as above, but with 50 mM TRIS.
(§1) Washed streptavidin and coated flash plates with wash buffer. Diluted receptor extract to give Bmax ˜4000 cpm and add to the wells. Wrapped the plates in aluminum foil and stored them at +4° C. over night.
(§2) Made a dilution series in DMSO of the test ligands. Made a 5 nM solution of the radioactive tracer in buffer. Mixed 250 μl diluted tracer with 5 μl of the test ligand from each concentration of the dilution series. Washed the receptor-coated flash plates. Added 200 μl per well of the ligand/radiolabel mixture to the receptor-coated flash plates. Wrapped the plates in aluminum foil and incubate at +4° C. over night.
(§3) Aspirated wells, and wash the flashed plates. Sealed the plate. Measured the remaining radioactivity in the plate.

[2] = biological target: T2, human LXRβ (Homo sapiens, UniProt P55055); test: Ligand-binding test procedure for human LXRβ (3H T0901317 tracer, flash plates); conditions: biotinylated hLXRβ from E. coli extract; tracer 3H T0901317
T2 construct: biotin (biotinylated); made in house; host or cells: E. coli (crude extract)
T2 sequence (P55055 1-460): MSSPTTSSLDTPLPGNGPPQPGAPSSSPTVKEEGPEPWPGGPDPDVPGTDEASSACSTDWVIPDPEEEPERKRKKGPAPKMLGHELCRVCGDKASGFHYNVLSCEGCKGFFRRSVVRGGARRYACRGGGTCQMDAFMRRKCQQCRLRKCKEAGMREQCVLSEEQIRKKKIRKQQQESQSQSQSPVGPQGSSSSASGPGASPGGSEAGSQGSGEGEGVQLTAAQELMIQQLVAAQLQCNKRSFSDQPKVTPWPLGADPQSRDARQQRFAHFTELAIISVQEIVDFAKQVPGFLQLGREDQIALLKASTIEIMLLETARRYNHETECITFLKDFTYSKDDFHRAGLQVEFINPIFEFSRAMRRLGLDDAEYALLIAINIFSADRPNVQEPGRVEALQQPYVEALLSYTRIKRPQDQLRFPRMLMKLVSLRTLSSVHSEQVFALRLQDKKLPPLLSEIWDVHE
Procedure: I. Ligand-Binding Test Procedure for Human LXRβ.
Receptor source: E. coli extract from cells expressing biotinylated hLXRβ. Extract was made in a similar buffer as above, but with 50 mM TRIS.
as §1, §2, §3

Structure (SMILES): CCc1nc2c(C(F)(F)F)cccn2c1-c1cccc(Oc2cccc(S(=O)(=O)CCC(C)(C)O)c2)c1 [Example 22, 4-(3-(3-(2-ethyl-8-(trifluoromethyl)imidazo[1,2-a]pyridin-3-yl)phenoxy)phenylsulfonyl)-2-methylbutan-2-ol]
IC50 [1]: 7130 nM | IC50 [2]: 740 nM

Structure (SMILES): CC(C)c1nc2c(Cl)cccn2c1-c1cccc(Oc2ccc(S(N)(=O)=O)cc2)c1 [Example 39, 4-(3-(8-chloro-2-isopropylimidazo[1,2-a]pyridin-3-yl)phenoxy)benzenesulfonamide]
IC50 [1]: 10200 nM | IC50 [2]: 3650 nM

Structure (SMILES): CCc1nc2c(C#N)cccn2c1-c1cccc(Oc2cccc(S(=O)(=O)N(Cc3ccc(OC)cc3)Cc3ccc(OC)cc3)c2)c1 [Example 45, 3-[3-(8-cyano-2-ethylimidazo[1,2-a]pyridin-3-yl)phenoxy]-N,N-bis(4-methoxybenzyl)benzenesulfonamide]
IC50 [1]: > 1000 nM | IC50 [2]: > 1000 nM

Structure (SMILES): CCc1nc2c(C#N)cccn2c1-c1cccc(Oc2cccc(S(N)(=O)=O)c2)c1 [Example 50, 3-[3-(8-cyano-2-ethylimidazo[1,2-a]pyridin-3-yl)phenoxy]benzenesulfonamide]
IC50 [1]: 14700 nM | IC50 [2]: 940 nM

Structure (SMILES): CCc1nc2c(C(F)(F)F)cccn2c1-c1ccc(-c2cccc(S(C)(=O)=O)c2)nc1 [Example 87, 2-ethyl-3-{6-[3-(methylsulfonyl)phenyl]pyridin-3-yl}-8-(trifluoromethyl)imidazo[1,2-a]pyridine]
IC50 [2]: 8330 nM

Structure (SMILES): CCc1nc2c(C#N)cccn2c1-c1ccc(Oc2cccc(S(C)(=O)=O)c2)cc1 [Example 104, 2-ethyl-3-{4-[3-(methylsulfonyl)phenoxy]phenyl}imidazo[1,2-a]pyridine-8-carbonitrile]
IC50 [2]: > 1000 nM

Structure (SMILES): CCc1nc2c(C#N)cccn2c1-c1ccc(Oc2cccc(S(=O)(=O)CC)c2)cc1 [Example 107, 2-ethyl-3-{4-[3-(ethylsulfonyl)phenoxy]phenyl}imidazo[1,2-a]pyridine-8-carbonitrile]
IC50 [2]: > 1000 nM

Structure (SMILES): CCc1nc2c(C#N)cccn2c1-c1cccc(COc2cccc(S(C)(=O)=O)c2)c1 [Example 110, 2-ethyl-3-(3-{[3-(methylsulfonyl)phenoxy]methyl}phenyl)imidazo[1,2-a]pyridine-8-carbonitrile]
IC50 [2]: > 1000 nM

Structure (SMILES): CCc1nc2c(Cl)cccn2c1-c1ccc(COc2cccc(S(C)(=O)=O)c2)cc1 [Example 112, 8-chloro-2-ethyl-3-(4-{[3-(methylsulfonyl)phenoxy]methyl}phenyl)imidazo[1,2-a]pyridine]
IC50 [2]: > 1000 nM

Structure (SMILES): CC(C)c1nc2c(C#N)cccn2c1-c1ccc(Oc2cccc(S(C)(=O)=O)c2)cc1 [Example 123, 2-(1-methylethyl)-3-{4-[3-(methylsulfonyl)phenoxy]phenyl}imidazo[1,2-a]pyridine-8-carbonitrile]
IC50 [2]: > 1000 nM

Structure (SMILES): CCS(=O)(=O)c1cccc(Oc2ccc(-c3c(C(C)C)nc4c(C#N)cccn34)cc2)c1 [Example 124, 3-{4-[3-(ethylsulfonyl)phenoxy]phenyl}-2-(1-methylethyl)imidazo[1,2-a]pyridine-8-carbonitrile]
IC50 [2]: > 1000 nM

Structure (SMILES): CS(=O)(=O)c1cccc(Oc2ccc(-c3c(C(F)(F)F)nc4c(C(F)(F)F)cccn34)cc2)c1 [Example 125, 3-{4-[3-(methylsulfonyl)phenoxy]phenyl}-2,8-bis(trifluoromethyl)imidazo[1,2-a]pyridine]
IC50 [2]: 600 nM

Structure (SMILES): CN1CCN(Cc2nc3c(C(F)(F)F)cccn3c2-c2cccc(Oc3cccc(S(C)(=O)=O)c3)c2)CC1 [Example 132, 2-[(4-methylpiperazin-1-yl)methyl]-3-{3-[3-(methylsulfonyl)phenoxy]phenyl}-8-(trifluoromethyl)imidazo[1,2-a]pyridine]
IC50 [2]: > 1000 nM

Structure (SMILES): CNCc1nc2c(C(F)(F)F)cccn2c1-c1cccc(Oc2cccc(S(C)(=O)=O)c2)c1 [Example 134, N-methyl-1-[3-{3-[3-(methylsulfonyl)phenoxy]phenyl}-8-(trifluoromethyl)imidazo[1,2-a]pyridin-2-yl]methanamine]
IC50 [2]: > 1000 nM

Structure (SMILES): CC(C)NCc1nc2c(C(F)(F)F)cccn2c1-c1cccc(Oc2cccc(S(C)(=O)=O)c2)c1 [Example 136, N-{[3-{3-[3-(methylsulfonyl)phenoxy]phenyl}-8-(trifluoromethyl)imidazo[1,2-a]pyridin-2-yl]methyl}propan-2-amine]
IC50 [2]: > 1000 nM

Stronger by IC50 [2], values ahead:

IC50 [1]: 1480 nM | IC50 [2]: 143 nM
Structure (SMILES): CCCS(=O)(=O)c1cccc(Oc2cccc(-c3c(C)nc4c(C(F)(F)F)cccn34)c2)c1 [Example 11, 2-methyl-3-(3-(3-(propylsulfonyl)phenoxy)phenyl)-8-(trifluoromethyl)imidazo[1,2-a]pyridine]

IC50 [1]: 6250 nM | IC50 [2]: 525 nM
Structure (SMILES): Cc1nc2c(C(F)(F)F)cccn2c1-c1cccc(Oc2cccc(S(=O)(=O)CCC(C)(C)O)c2)c1 [Example 14, 2-methyl-4-[(3-{3-[2-methyl-8-(trifluoromethyl)imidazo[1,2-a]pyridin-3-yl]phenoxy}phenyl)sulfonyl]butan-2-ol]

IC50 [1]: 1880 nM | IC50 [2]: 119 nM
Structure (SMILES): Cc1nc2c(C(F)(F)F)cccn2c1-c1cccc(Oc2cc(F)cc(S(C)(=O)=O)c2)c1 [Example 15, 3-{3-[3-fluoro-5-(methylsulfonyl)phenoxy]phenyl}-2-methyl-8-(trifluoromethyl)imidazo[1,2-a]pyridine]

IC50 [1]: 4770 nM | IC50 [2]: 508 nM
Structure (SMILES): CCC(C)S(=O)(=O)c1ccc(Oc2cccc(-c3c(C)nc4c(C(F)(F)F)cccn34)c2)cc1 (stereo not shown) [Example 16, 3-{3-[4-(sec-butylsulfonyl)phenoxy]phenyl}-2-methyl-8-(trifluoromethyl)imidazo[1,2-a]pyridine]

IC50 [1]: 221 nM | IC50 [2]: 5 nM
Structure (SMILES): CCS(=O)(=O)c1cccc(Oc2cccc(-c3c(C(C)C)nc4c(C(F)(F)F)cccn34)c2)c1 [Example 26, 2-isopropyl-3-(3-(3-(ethylsulfonyl)phenoxy)phenyl)-8-(trifluoromethyl)imidazo[1,2-a]pyridine]

IC50 [1]: 144 nM | IC50 [2]: 8 nM
Structure (SMILES): CC(C)c1nc2c(C(F)(F)F)cccn2c1-c1cccc(Oc2cccc(S(=O)(=O)C(C)C)c2)c1 [Example 27, 2-isopropyl-3-(3-(3-(isopropylsulfonyl)phenoxy)phenyl)-8-(trifluoromethyl)imidazo[1,2-a]pyridine]

IC50 [1]: 10 nM | IC50 [2]: 1.3 nM
Structure (SMILES): CCS(=O)(=O)c1cccc(Oc2cccc(-c3c(Cc4ccccc4)nc4c(C(F)(F)F)cccn34)c2)c1 [Example 29, 2-benzyl-3-(3-(3-(ethylsulfonyl)phenoxy)phenyl)-8-(trifluoromethyl)imidazo[1,2-a]pyridine]

IC50 [1]: 15.8 nM | IC50 [2]: 1.7 nM
Structure (SMILES): CC(C)S(=O)(=O)c1cccc(Oc2cccc(-c3c(Cc4ccccc4)nc4c(C(F)(F)F)cccn34)c2)c1 [Example 30, 2-benzyl-3-(3-(3-(isopropylsulfonyl)phenoxy)phenyl)-8-(trifluoromethyl)imidazo[1,2-a]pyridine]

IC50 [1]: 920 nM | IC50 [2]: 409 nM
Structure (SMILES): CCc1nc2c(Cl)cccn2c1-c1cccc(Oc2cccc(S(=O)(=O)N(Cc3ccc(OC)cc3)Cc3ccc(OC)cc3)c2)c1 [Example 42, 3-[3-(8-chloro-2-ethylimidazo[1,2-a]pyridin-3-yl)phenoxy]-N,N-bis(4-methoxybenzyl)benzenesulfonamide]

IC50 [1]: 39.9 nM | IC50 [2]: 14.7 nM
Structure (SMILES): CCc1nc2c(Cl)cccn2c1-c1cccc(Oc2cccc(S(=O)(=O)N(C)Cc3ccc(OC)cc3)c2)c1 [Example 43, 3-[3-(8-chloro-2-ethylimidazo[1,2-a]pyridin-3-yl)phenoxy]-N-(4-methoxybenzyl)-N-methylbenzenesulfonamide]

IC50 [1]: 2140 nM | IC50 [2]: 151 nM
Structure (SMILES): CCc1nc2c(Cl)cccn2c1-c1cccc(Oc2cccc(S(N)(=O)=O)c2)c1 [Example 47, 3-[3-(8-chloro-2-ethylimidazo[1,2-a]pyridin-3-yl)phenoxy]benzenesulfonamide]

IC50 [1]: 1860 nM | IC50 [2]: 137 nM
Structure (SMILES): CC(C)c1nc2c(Cl)cccn2c1-c1cccc(OCc2cccc(S(C)(=O)=O)c2)c1 [Example 53, 8-chloro-2-isopropyl-3-(3-{[3-(methylsulfonyl)benzyl]oxy}phenyl)imidazo[1,2-a]pyridine]

From patent US20110112135A1, “Imidazo [1,2-A] Pyridine Compounds” (priority 2007, published 2011)
